Among the data in patent publication US11780845B2 (Relay Therapeutics, Inc., priority 2019, dated 2023) are IC50 values, retold here.

The target in one test is FGFR2 (Homo sapiens (Human), UniProt P21802). Put plainly: FGFR2 Biochemical Caliper Assay. The method, then: Compounds of the present invention were also tested in a FGFR2 Biochemical Caliper Assay. Compounds were prepared in 10 mM DMSO solution and serially diluted into 11 concentrations by 3-fold dilution. […] 5 uL of ATP solution (100 uM) was added to start the reaction and the plate was incubated for 90 minutes, then 70 uL of stopping buffer (0.5M EDTA) was added to terminate the reaction. Each well was analyzed using EZ reader.

The subject of the next test is SNU16 cells. Put plainly: SNU16 Cancer Cell Line Proliferation Assay. It is filed as cell-based. The note with it: SNU-16 cells. The procedure, abridged:
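SNU16 cells were seeded, held 24 h at 37 degrees, then dosed with an 11-point 3-fold dilution series prepared from a 10 mM DMSO stock. After 96 h incubation, viability was read by CellTiter Glo luminescence.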

For orientation: IC50 means the concentration at which inhibition is half-maximal. Read a high IC50 as weaker potency.

Sequence of FGFR2 (P21802 22-821): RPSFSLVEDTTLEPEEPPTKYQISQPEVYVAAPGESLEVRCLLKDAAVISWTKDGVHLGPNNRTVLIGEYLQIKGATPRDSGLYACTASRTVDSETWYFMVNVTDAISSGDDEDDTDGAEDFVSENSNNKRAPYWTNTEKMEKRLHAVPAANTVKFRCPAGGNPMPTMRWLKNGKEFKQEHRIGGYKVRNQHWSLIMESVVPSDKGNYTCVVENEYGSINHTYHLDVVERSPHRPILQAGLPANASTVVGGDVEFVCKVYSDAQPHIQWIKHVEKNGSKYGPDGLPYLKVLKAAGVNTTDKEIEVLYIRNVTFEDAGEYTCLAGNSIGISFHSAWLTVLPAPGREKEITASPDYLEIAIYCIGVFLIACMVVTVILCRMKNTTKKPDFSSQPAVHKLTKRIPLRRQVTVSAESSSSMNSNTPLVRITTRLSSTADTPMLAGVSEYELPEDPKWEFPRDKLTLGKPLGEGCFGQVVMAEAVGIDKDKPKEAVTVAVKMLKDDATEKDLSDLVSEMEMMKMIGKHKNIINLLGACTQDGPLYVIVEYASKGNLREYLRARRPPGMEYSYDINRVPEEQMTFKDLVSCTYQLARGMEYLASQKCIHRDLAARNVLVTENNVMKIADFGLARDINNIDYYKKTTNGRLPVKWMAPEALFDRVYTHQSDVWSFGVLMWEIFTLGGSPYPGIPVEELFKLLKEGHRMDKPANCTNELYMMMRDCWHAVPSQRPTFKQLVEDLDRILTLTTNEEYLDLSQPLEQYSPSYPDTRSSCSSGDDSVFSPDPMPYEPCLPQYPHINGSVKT

With `C=C(C)C(=O)Nc1ccc(-c2c(-c3ccc(Oc4cccc(C)n4)cc3)c3c(N)ncnc3n2C)nc1` [Example 533], the values for the IC50 on FGFR2 and with SNU16 cells (Homo sapiens) were less than 0.1 µM and no more than 0.1 µM, respectively.
On to `C=C(C)C(=O)Nc1ccc(-c2c(-c3ccc(C(=O)N4CC[C@H]5C[C@H]54)cc3)c3c(N)ncnc3n2C)c(F)c1` (single isomer, unassigned) [Example 466], for which the IC50 at FGFR2 is less than 0.1 µM; with SNU16 cells (Homo sapiens), no more than 0.1 µM.
For the molecule `C=CC(=O)N1CCC(c2c(-c3ccc(CN4CCC(C)(C)C4)cc3)c3c(N)ncnc3n2C)C1` (centres unmarked) [Example 753], the IC50 at FGFR2 and in the test on SNU16 cells (Homo sapiens) was 1 to 100 µM throughout.
As for `C=C(C)C(=O)Nc1ccc(-c2c(-c3ccc(C(=O)NC4CCCC4OC)cc3)c3c(N)ncnc3n2C)cc1` (centres unmarked) [Example 321], the IC50 against FGFR2 and in the test on SNU16 cells (Homo sapiens) was 0.1 to 0.25 µM throughout.
For `C=C(C)C(=O)Nc1ccc(-c2c(-c3ccc(Oc4cccc(C)n4)cc3)c3c(N)ncnc3n2CC)cc1` [Example 83], the IC50 against FGFR2 is less than 0.1 µM; in the test on SNU16 cells (Homo sapiens) it was no more than 0.1 µM.
In the same order, the values of `C=C(C)C(=O)Nc1ccc(-c2c(-c3ccc(C(=O)NCC4CCO4)cc3)c3c(N)ncnc3n2C)cc1` (centres unmarked) [Example 348] are less than 0.1 µM and 0.25 to 1 µM.
Regarding `C=C(C)C(=O)Nc1ccc(-c2c(-c3ccc4sc(C(=O)N(C)C)cc4c3)c3c(N)ncnc3n2C)cc1` [Example 180], the IC50 was 0.25 to 1 µM on FGFR2 and 0.1 to 0.25 µM with SNU16 cells (Homo sapiens).
Regarding `C=CC(=O)N1CCC(c2c(-c3csc(CN4CCOCC4)c3)c3c(N)ncnc3n2C)C1` (centres unmarked) [Example 757], the IC50 on FGFR2 and in the test on SNU16 cells (Homo sapiens) was 1 to 100 µM in each case.
In the case of `C=C(C)C(=O)Nc1ccc(-c2c(-c3ccc(Oc4nccc(C)n4)cc3C(F)F)c3c(N)ncnc3n2C)cc1` [Example 571], the IC50 fell in the range of 1 to 100 µM on FGFR2 and 0.25 to 1 µM in the test on SNU16 cells (Homo sapiens).
`C=C(C)C(=O)Nc1ccc(-c2c(-c3ccc(Oc4cccc(COC)n4)cc3)c3c(N)ncnc3n2C)cc1` [Example 417]: the figures for the IC50 against FGFR2 and with SNU16 cells (Homo sapiens) were less than 0.1 µM and no more than 0.1 µM, respectively.
For the molecule `C=CC(=O)Nc1ccc(-c2c(C3=CCC(C(=O)N4CCCC4)CC3)c3c(N)ncnc3n2C)cc1` (centres unmarked) [Example 297], the IC50 against FGFR2 was less than 0.1 µM; in the test with SNU16 cells (Homo sapiens), no more than 0.1 µM.
In the same order, the values of `C=C(C)C(=O)Nc1ccc(-c2c(-c3ccc(Oc4cccc(C)n4)cc3)c3c(N)ncnc3n2C)c(F)c1` [Example 341] are less than 0.1 µM and no more than 0.1 µM.
Regarding `C=CC(=O)N1CCC(c2c(-c3cnn(C(C)C)c3)c3c(N)ncnc3n2C)C1` (centres unmarked) [Example 737], the IC50 against FGFR2 and with SNU16 cells (Homo sapiens) was 1 to 100 µM each time.
As for `C=C(C)C(=O)Nc1ccc(-c2c(-c3ccc(C(=O)N4CC5CCCCC5C4)cc3)c3c(N)ncnc3n2C)cc1` (centres unmarked) [Example 246], the IC50 is 0.25 to 1 µM on FGFR2 and 0.1 to 0.25 µM in the test on SNU16 cells (Homo sapiens).
As for `C=C(C)C(=O)Nc1ccc(-c2[nH]c3ncnc(N)c3c2-c2ccc(Oc3cccc(C)n3)c(OCC)c2)cc1` [Example 788], the IC50 was less than 0.1 µM on FGFR2 and no more than 0.1 µM in the test with SNU16 cells (Homo sapiens).
In the case of `C=C(C)C(=O)Nc1ccc(-c2c(-c3ccc(Oc4cccc(C)n4)cc3)c3c(N)ncnc3n2C)cc1C` [Example 385], the results for the IC50 on FGFR2 and in the test with SNU16 cells (Homo sapiens) were 0.1 to 0.25 µM and no more than 0.1 µM, respectively.
For the molecule `C=CC(=O)Nc1ccc(-c2c(-c3ccc(Oc4ncc(CO)cn4)c(OC)c3)c3c(N)ncnc3n2C)cc1` [Example 60], the values for the IC50 at FGFR2 and with SNU16 cells (Homo sapiens) were less than 0.1 µM and 0.25 to 1 µM, respectively.
With `C=C(C)C(=O)Nc1ccc(-c2c(C3=CC[C@@H](C(=O)N4CC5CCC(C5)C4)CC3)c3c(N)ncnc3n2C)cc1` [Example 419], the IC50 at FGFR2 is less than 0.1 µM; in the test with SNU16 cells (Homo sapiens), no more than 0.1 µM.
As to `C=C(C)C(=O)Nc1ccc(-c2c(-c3ccc(C(=O)NCC4(F)COC4)cc3)c3c(N)ncnc3n2C)cc1` [Example 338], the figures for the IC50 against FGFR2 and in the test on SNU16 cells (Homo sapiens) were less than 0.1 µM and no more than 0.1 µM, respectively.
For `C=Cc1ncc(-c2c(-c3ccc(C(=O)N4CCCC4)cc3)c3c(N)ncnc3n2C)cn1` [Example 554], the IC50 against FGFR2 and with SNU16 cells (Homo sapiens) was 0.25 to 1 µM in each case.
On to `C=CC(=O)Nc1ccc(-c2c(-c3ccc(Oc4cccc(Cl)n4)c(OC)c3)c3c(N)ncnc3n2C)cc1` [Example 35], for which the IC50 against FGFR2 was less than 0.1 µM; in the test on SNU16 cells (Homo sapiens), no more than 0.1 µM.
Taken in the same sequence, the figures for `C=CC(=O)Nc1ccc(-c2c(C3=CCC(NC(C)=O)CC3)c3c(N)ncnc3n2C)cc1` (centres unmarked) [Example 171] were 0.1 to 0.25 µM and 0.25 to 1 µM.
Take `C=C(C)C(=O)Nc1ccc(-c2c(-c3ccc(C(=O)N4CCCC4)cc3)c3c(N)ncnc3n2C)c(C)c1` [Example 406]: the IC50 on FGFR2 is less than 0.1 µM; with SNU16 cells (Homo sapiens), no more than 0.1 µM.
In the same order, the values of `C=C(C)C(=O)Nc1ccc(-c2c(-c3ccc(C(=O)NCC(O)C(F)(F)F)cc3)c3c(N)ncnc3n2C)cc1` (centres unmarked) [Example 332] are less than 0.1 µM and 0.25 to 1 µM.
For the molecule `C=C(C)C(=O)Nc1ccc(-c2c(-c3ccc(C(=O)N(C)Cc4nc(C)no4)cc3)c3c(N)ncnc3n2C)c(F)c1` [Example 468], the IC50 was less than 0.1 µM at FGFR2 and no more than 0.1 µM in the test on SNU16 cells (Homo sapiens).
In the same order, the values of `C=CC(=O)N1CCC(c2c(-c3ccc(Oc4ccc(C)nc4)c(OC)c3)c3c(N)ncnc3n2C)C1` (centres unmarked) [Example 685] are 1 to 100 µM and 1 to 100 µM.
In the same order, the values of `C=CC(=O)N1CC=C(c2c(-c3ccc(Oc4cccc(C)n4)cc3)c3c(N)ncnc3n2C)CC1` [Example 656] are less than 0.1 µM and no more than 0.1 µM.
For the molecule `C=C(C)C(=O)Nc1ccc(-c2c(-c3ccc(Oc4ncc(F)c(C)n4)c(F)c3)c3c(N)ncnc3n2C)cc1` [Example 515], the half-maximal inhibitory concentration (IC50) is less than 0.1 µM against FGFR2 and no more than 0.1 µM in the test with SNU16 cells (Homo sapiens).
Taken in the same sequence, the figures for `C=C(C)C(=O)Nc1ccc(-c2c(-c3ccc(C(=O)N4CCC(F)(F)C4)cc3)c3c(N)ncnc3n2C)cc1` [Example 137] were 0.25 to 1 µM and no more than 0.1 µM.
Take `C=C(C)C(=O)Nc1ccc(-c2c(-c3ccc(C(=O)N4CCOCC4)cc3)c3c(N)ncnc3n2C)cc1` [Example 176]: the values for the IC50 against FGFR2 and in the test with SNU16 cells (Homo sapiens) were 1 to 100 µM and 0.25 to 1 µM, respectively.
Taken in the same sequence, the figures for `C=C(C)C(=O)Nc1ccc(-c2c(-c3ccc(C(=O)NC4CCC4)cc3)c3c(N)ncnc3n2C)cc1` [Example 265] were less than 0.1 µM and no more than 0.1 µM.
In the same order, the values of `C=CC(=O)N1CCC(n2ncc(-c3c(-c4ccc(Oc5cccc(C)n5)cc4)c4c(N)ncnc4n3C)c2C)CC1` [Example 637] are less than 0.1 µM and no more than 0.1 µM.
On to `C=C(C)C(=O)Nc1ccc(-c2c(-c3ccc(C(=O)NC4CCCC4O)cc3)c3c(N)ncnc3n2C)cc1` (centres unmarked) [Example 308], for which the IC50 was less than 0.1 µM on FGFR2 and 0.1 to 0.25 µM in the test on SNU16 cells (Homo sapiens).
In the case of `C=CC(=O)Nc1ccc(-c2c(-c3ccc(Oc4ncccn4)c(OC)c3)c3c(N)ncnc3n2C)cc1` [Example 15], the IC50 was less than 0.1 µM on FGFR2 and no more than 0.1 µM with SNU16 cells (Homo sapiens).
Taken in the same sequence, the figures for `C=Cc1ncc2cc(-c3c(-c4ccc(C(=O)N5CCCC5)cc4)c4c(N)ncnc4n3C)ccc2n1` [Example 573] were 1 to 100 µM and 0.25 to 1 µM.
As for `C=C(C)C(=O)Nc1ccc(-c2c(-c3ccc(Oc4cccc(C(F)(F)F)c4)nc3)c3c(N)ncnc3n2C)cc1` [Example 169], the IC50 on FGFR2 lay within 1 to 100 µM; with SNU16 cells (Homo sapiens), 0.25 to 1 µM.
Taken in the same sequence, the figures for `C=C(C)C(=O)Nc1ccc(-c2c(-c3ccc(C(=O)NC4CC(F)C4)c(OC)c3)c3c(N)ncnc3n2C)cc1` (centres unmarked) [Example 566] were less than 0.1 µM and no more than 0.1 µM.
Regarding `C=C(C)C(=O)Nc1ccc(-c2c(-c3ccc(C(=O)N4CC[C@@H]5C[C@@H]54)cc3)c3c(N)ncnc3n2C)c(F)c1` (single isomer, unassigned) [Example 464], the IC50 against FGFR2 was less than 0.1 µM; in the test with SNU16 cells (Homo sapiens) it was no more than 0.1 µM.
Consider `C=C(C)C(=O)Nc1ccc(-c2c(-c3ccc(Oc4cncc(C)n4)c(F)c3)c3c(N)ncnc3n2C)cc1` [Example 492], for which the figures for the IC50 against FGFR2 and with SNU16 cells (Homo sapiens) were less than 0.1 µM and no more than 0.1 µM, respectively.
Take `C=C(C)C(=O)Nc1ccc(-c2c(-c3ccc(Oc4nccc(C)n4)cc3)c3c(N)ncnc3n2C)c(CC)c1` [Example 521]: the IC50 is less than 0.1 µM at FGFR2 and no more than 0.1 µM in the test with SNU16 cells.
As for `C=CC(=O)Nc1ccc(-c2c(-c3cc(C)c(Oc4ncccn4)c(OC)c3)c3c(N)ncnc3n2C)cc1` [Example 120], the IC50 was less than 0.1 µM on FGFR2 and no more than 0.1 µM in the test with SNU16 cells (Homo sapiens).
On to `C=C(C)C(=O)Nc1ccc(-c2c(-c3ccc(Oc4cccc(C)n4)cc3)c3c(N)ncnc3n2C)c(C)c1` [Example 384], for which the values for the IC50 at FGFR2 and in the test with SNU16 cells (Homo sapiens) were less than 0.1 µM and no more than 0.1 µM, respectively.
Regarding `C=C(C)C(=O)Nc1ccc(-c2c(-c3ccc(Oc4cccc(C)n4)c(C#N)c3)c3c(N)ncnc3n2C)cc1` [Example 445], the IC50 against FGFR2 was less than 0.1 µM; in the test with SNU16 cells (Homo sapiens), no more than 0.1 µM.
For the molecule `C=CC(=O)N1CCC(c2c(-c3ccc(Oc4ncccn4)cc3)c3c(N)ncnc3n2CCN2CCOCC2)C1` (centres unmarked) [Example 728], the IC50 against FGFR2 and with SNU16 cells (Homo sapiens) was 1 to 100 µM in each case.
With `C=C(C)C(=O)Nc1ccc(-c2c(-c3ccc(C(=O)NCC(C)(C)O)cc3)c3c(N)ncnc3n2C)cc1` [Example 288], the IC50 on FGFR2 is less than 0.1 µM; in the test with SNU16 cells (Homo sapiens), 0.25 to 1 µM.
`C=C(C)C(=O)Nc1ccc(-c2c(-c3ccc(C(=O)N4CCCCC4C)cc3)c3c(N)ncnc3n2C)cc1` (centres unmarked) [Example 189]: the IC50 on FGFR2 was less than 0.1 µM; with SNU16 cells (Homo sapiens), no more than 0.1 µM.
Take `C=CC(=O)N1CCCC(n2cc(-c3c(-c4ccc(Oc5cccc(C)n5)cc4)c4c(N)ncnc4n3C)cn2)C1C` (centres unmarked) [Example 627]: the results for the IC50 against FGFR2 and in the test with SNU16 cells (Homo sapiens) were less than 0.1 µM and no more than 0.1 µM, respectively.
For `C=CC(=O)Nc1ccc(-c2c(-c3ccc(Oc4ccn(C)n4)cc3)c3c(N)ncnc3n2C)cc1` [Example 276], the IC50 at FGFR2 is less than 0.1 µM; with SNU16 cells (Homo sapiens) it was no more than 0.1 µM.
On to `C=C(C)C(=O)Nc1ccc(-c2c(-c3ccc(Oc4ncc(F)cn4)cc3)c3c(N)ncnc3n2C)c(F)c1` [Example 427], for which the half-inhibitory concentration (IC50) is less than 0.1 µM against FGFR2 and no more than 0.1 µM in the test on SNU16 cells (Homo sapiens).
